These are literature values, as cited in patent US20080139510A1, “Treatment of migraine headaches with sublingual amino acids” (priority 2006, published 2008).

The test system of this data set is migraine attack. The settings on record: oral administration, tablet or capsule.

Molecules are shown by their SMILES.

Turning to `N[C@@H](Cc1c[nH]c2ccc(O)cc12)C(=O)O` [5-HTP, 5-hydroxytryptophan], the “aborting or significantly mitigating pain after onset of migraine attack” value is “ineffective”.
